In PMC7531004, “Discovery of gramicidin A analogues with altered activities by multidimensional screening of a one-bead-one-compound library” (Nature Communications, 2020):
Where a SMILES comes first, the peptide text is derived from it. [ ]: non-standard residue; d: D form. The star is where a group is joined. NHCH2CH2OH = OCCN*; For = O=C*

Experiments:
[1] = tested on: Streptococcus pyogenes SSI-9; experiment: Antibacterial activity assay of bead-derived peptides (three concentrations); format: cell-based; set-up: key: +++: inhibition by the 640-fold diluted peptide solution; ++: inhibition by the 160-fold diluted solution; +: inhibition by the 40-fold diluted solution; -: no inhibition; settings: S. pyogenes, bead-derived peptide solution, three concentrations
How it was run: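 Undiluted, 4-fold and 16-fold DMSO-diluted peptide stocks; S. pyogenes SSI-9, 2 × 10^5 CFU, cation-adjusted MHB (50 mg/L Ca2+, 25 mg/L Mg2+) + 5% laked horse blood; 37 °C, 18 h; readout = cell pellet visible or not.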

[2] = H+/Na+ transport assay of bead-derived peptides (one-point); format: biochemical; set-up: key: relative activity; mean of two control wells = 1.00; settings: bead-derived peptide solution, EYPC/EYPG LUVs;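 note: relative to parent gramicidin A activity set to 1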
How it was run: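 Pyranine (1.0 mM)-loaded LUVs containing egg yolk phosphatidylglycerol were prepared by film hydration, sonication and extrusion, then mixed with diluted bead-derived peptide in 96-well format and vortexed 30 min at room temperature. Fluorescence was normalized between untreated LUVs (0%) and Triton X-100 lysis (100%).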

[3] = cell viability/%
How it was run: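 P388 cells at 1 × 10^4 cells/mL (final) were exposed to library peptides (stocks diluted 250-fold in RPMI1640/10% FBS) for 92 h at 37 °C, 5% CO2. Viable cells were counted by WST-1/1-methoxy PMS (4 h), absorbance 415 nm, and expressed as cell viability (%).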

Row | SMILES | antibacterial activity [1] | H+/Na+ transport activity normalized against the value of 1 (1.00) [2] | viability [3] [%]
1 | CNC(=O)C[C@@H](NC(=O)[C@H](C)NC(=O)[C@@H](CC(C)C)NC(=O)[C@H](C)NC(=O)CNC(=O)[C@@H](NC=O)C(C)C)C(=O)N[C@H](C(=O)N[C@@H](C(=O)N[C@@H](Cc1c[nH]c2ccccc12)C(=O)N[C@@H](C(=O)N[C@@H](Cc1c[nH]c2ccccc12)C(=O)N[C@H](CC(C)C)C(=O)N[C@@H](Cc1c[nH]c2ccccc12)C(=O)N[C@@H](C(=O)N[C@@H](Cc1c[nH]c2ccccc12)C(=O)NCCO)C(C)C)C(C)C)C(C)C)C(C)C [compound 8583] (For-VGA[dL]A[dD](NHMe)V[dV]W[dV]W[dL]W[dV]W-NHCH2CH2OH) | - | 1.15 | 63.4
2 | CC(C)C[C@@H](NC(=O)[C@H](C)NC(=O)CNC(=O)[C@@H](NC=O)C(C)C)C(=O)N[C@@H](C)C(=O)N[C@H](CC(C)C)C(=O)N[C@H](C(=O)N[C@@H](C(=O)N[C@@H](Cc1c[nH]c2ccccc12)C(=O)N[C@H](CC(C)C)C(=O)N[C@@H](Cc1c[nH]c2ccccc12)C(=O)N[C@@H](C(=O)N[C@@H](Cc1c[nH]c2ccccc12)C(=O)N[C@H](CC(C)C)C(=O)N[C@@H](Cc1c[nH]c2ccccc12)C(=O)NCCO)C(C)C)[C@H](C)O)C(C)C [compound 8604] (For-VGA[dL]A[dL]V[dT]W[dL]W[dV]W[dL]W-NHCH2CH2OH) | - | 1.08 | 54.4
3 | CC(C)C[C@@H](NC(=O)[C@H](C)NC(=O)CNC(=O)[C@@H](NC=O)C(C)C)C(=O)N[C@@H](C)C(=O)N[C@@H](C(=O)N[C@H](C(=O)N[C@@H](C(=O)N[C@@H](Cc1c[nH]c2ccccc12)C(=O)N[C@@H](C(=O)N[C@@H](Cc1c[nH]c2ccccc12)C(=O)N[C@H](CC(C)C)C(=O)N[C@@H](Cc1c[nH]c2ccccc12)C(=O)N[C@H](CC(C)C)C(=O)N[C@@H](Cc1c[nH]c2ccccc12)C(=O)NCCO)C(C)C)C(C)C)C(C)C)[C@H](C)O [compound 8755] (For-VGA[dL]A[dT]V[dV]W[dV]W[dL]W[dL]W-NHCH2CH2OH) | - | 1.10 | 67.3
4 | CC(C)C[C@@H](NC(=O)[C@H](Cc1c[nH]c2ccccc12)NC(=O)[C@@H](CC(C)C)NC(=O)[C@H](Cc1c[nH]c2ccccc12)NC(=O)[C@H](NC(=O)[C@H](Cc1c[nH]c2ccccc12)NC(=O)[C@@H](CC(C)C)NC(=O)[C@@H](NC(=O)[C@H](NC(=O)[C@H](C)NC(=O)[C@H](NC(=O)[C@H](C)NC(=O)CNC(=O)[C@@H](NC=O)C(C)C)[C@H](C)O)C(C)C)C(C)C)C(C)C)C(=O)N[C@@H](Cc1c[nH]c2ccccc12)C(=O)NCCO [compound 8827] (For-VGA[dT]A[dV]V[dL]W[dV]W[dL]W[dL]W-NHCH2CH2OH) | - | 1.22 | 80.7
5 | CC(C)C[C@@H](NC(=O)[C@H](Cc1c[nH]c2ccccc12)NC(=O)[C@H](NC(=O)[C@@H](NC(=O)[C@H](NC(=O)[C@H](C)NC(=O)[C@H](NC(=O)[C@H](C)NC(=O)CNC(=O)[C@@H](NC=O)C(C)C)C(C)C)[C@H](C)O)C(C)C)C(C)C)C(=O)N[C@@H](Cc1c[nH]c2ccccc12)C(=O)N[C@@H](C(=O)N[C@@H](Cc1c[nH]c2ccccc12)C(=O)N[C@@H](C(=O)N[C@@H](Cc1c[nH]c2ccccc12)C(=O)NCCO)C(C)C)C(C)C [compound 9055] (For-VGA[dV]A[dT]V[dV]W[dL]W[dV]W[dV]W-NHCH2CH2OH) | - | 1.01 | 83.5
6 | CC(C)C[C@@H](NC(=O)[C@H](C)NC(=O)CNC(=O)[C@@H](NC=O)C(C)C)C(=O)N[C@@H](C)C(=O)N[C@@H](C(=O)N[C@H](C(=O)N[C@@H](C(=O)N[C@@H](Cc1c[nH]c2ccccc12)C(=O)N[C@H](CC(C)C)C(=O)N[C@@H](Cc1c[nH]c2ccccc12)C(=O)N[C@H](CC(C)C)C(=O)N[C@@H](Cc1c[nH]c2ccccc12)C(=O)N[C@H](CC(C)C)C(=O)N[C@@H](Cc1c[nH]c2ccccc12)C(=O)NCCO)C(C)C)C(C)C)[C@H](C)O [compound 9098] (For-VGA[dL]A[dT]V[dV]W[dL]W[dL]W[dL]W-NHCH2CH2OH) | - | 1.13 | 51
7 | CC(C)C[C@@H](NC(=O)[C@H](C)NC(=O)[C@H](NC(=O)[C@H](C)NC(=O)CNC(=O)[C@@H](NC=O)C(C)C)C(C)C)C(=O)N[C@H](C(=O)N[C@@H](C(=O)N[C@@H](Cc1c[nH]c2ccccc12)C(=O)N[C@H](CC(C)C)C(=O)N[C@@H](Cc1c[nH]c2ccccc12)C(=O)N[C@@H](C(=O)N[C@@H](Cc1c[nH]c2ccccc12)C(=O)N[C@H](CC(C)C)C(=O)N[C@@H](Cc1c[nH]c2ccccc12)C(=O)NCCO)[C@H](C)O)C(C)C)C(C)C [compound 9177] (For-VGA[dV]A[dL]V[dV]W[dL]W[dT]W[dL]W-NHCH2CH2OH) | - | 1.05 | 61.7
8 | CC(C)C[C@@H](NC(=O)[C@H](C)NC(=O)[C@H](NC(=O)[C@H](C)NC(=O)CNC(=O)[C@@H](NC=O)C(C)C)C(C)C)C(=O)N[C@H](C(=O)N[C@H](CC(C)C)C(=O)N[C@@H](Cc1c[nH]c2ccccc12)C(=O)N[C@H](CC(C)C)C(=O)N[C@@H](Cc1c[nH]c2ccccc12)C(=O)N[C@@H](C(=O)N[C@@H](Cc1c[nH]c2ccccc12)C(=O)N[C@@H](C(=O)N[C@@H](Cc1c[nH]c2ccccc12)C(=O)NCCO)C(C)C)C(C)C)C(C)C [compound 9247] (For-VGA[dV]A[dL]V[dL]W[dL]W[dV]W[dV]W-NHCH2CH2OH) | + | 1.02 | 6
9 | CC(C)C[C@@H](NC(=O)[C@H](C)NC(=O)CNC(=O)[C@@H](NC=O)C(C)C)C(=O)N[C@@H](C)C(=O)N[C@H](CC(C)C)C(=O)N[C@H](C(=O)N[C@@H](C(=O)N[C@@H](Cc1c[nH]c2ccccc12)C(=O)N[C@@H](C(=O)N[C@@H](Cc1c[nH]c2ccccc12)C(=O)N[C@H](CC(C)C)C(=O)N[C@@H](Cc1c[nH]c2ccccc12)C(=O)N[C@@H](C(=O)N[C@@H](Cc1c[nH]c2ccccc12)C(=O)NCCO)[C@H](C)O)C(C)C)C(C)C)C(C)C [compound 9823] (For-VGA[dL]A[dL]V[dV]W[dV]W[dL]W[dT]W-NHCH2CH2OH) | - | 1.08 | 100
10 | CNC(=O)C[C@@H](NC(=O)[C@H](Cc1c[nH]c2ccccc12)NC(=O)[C@H](NC(=O)[C@H](Cc1c[nH]c2ccccc12)NC(=O)[C@H](NC(=O)[C@H](Cc1c[nH]c2ccccc12)NC(=O)[C@H](NC(=O)[C@@H](NC(=O)[C@@H](CC(C)C)NC(=O)[C@H](C)NC(=O)[C@@H](CC(C)C)NC(=O)[C@H](C)NC(=O)CNC(=O)[C@@H](NC=O)C(C)C)C(C)C)C(C)C)C(C)C)C(C)C)C(=O)N[C@@H](Cc1c[nH]c2ccccc12)C(=O)NCCO [compound 10002] (For-VGA[dL]A[dL]V[dV]W[dV]W[dV]W[dD](NHMe)W-NHCH2CH2OH) | - | 1.01 | 100
11 | CC(C)C[C@@H](NC(=O)[C@H](Cc1c[nH]c2ccccc12)NC(=O)[C@@H](CC(C)C)NC(=O)[C@H](Cc1c[nH]c2ccccc12)NC(=O)[C@H](NC(=O)[C@H](Cc1c[nH]c2ccccc12)NC(=O)[C@H](NC(=O)[C@@H](NC(=O)[C@H](NC(=O)[C@H](C)NC(=O)[C@H](NC(=O)[C@H](C)NC(=O)CNC(=O)[C@@H](NC=O)C(C)C)C(C)C)C(C)C)C(C)C)C(C)C)[C@H](C)O)C(=O)N[C@@H](Cc1c[nH]c2ccccc12)C(=O)NCCO [compound 10042] (For-VGA[dV]A[dV]V[dV]W[dT]W[dL]W[dL]W-NHCH2CH2OH) | - | 1.06 | 100
12 | CC(C)C[C@@H](NC(=O)[C@H](C)NC(=O)[C@H](NC(=O)[C@H](C)NC(=O)CNC(=O)[C@@H](NC=O)C(C)C)[C@H](C)O)C(=O)N[C@H](C(=O)N[C@@H](C(=O)N[C@@H](Cc1c[nH]c2ccccc12)C(=O)N[C@H](CC(C)C)C(=O)N[C@@H](Cc1c[nH]c2ccccc12)C(=O)N[C@@H](C(=O)N[C@@H](Cc1c[nH]c2ccccc12)C(=O)N[C@H](CC(C)C)C(=O)N[C@@H](Cc1c[nH]c2ccccc12)C(=O)NCCO)C(C)C)C(C)C)C(C)C [compound 10313] (For-VGA[dT]A[dL]V[dV]W[dL]W[dV]W[dL]W-NHCH2CH2OH) | - | 1.11 | 100
13 | CC(C)C[C@@H](NC(=O)[C@H](C)NC(=O)[C@H](NC(=O)[C@H](C)NC(=O)CNC(=O)[C@@H](NC=O)C(C)C)[C@H](C)O)C(=O)N[C@H](C(=O)N[C@@H](C(=O)N[C@@H](Cc1c[nH]c2ccccc12)C(=O)N[C@@H](C(=O)N[C@@H](Cc1c[nH]c2ccccc12)C(=O)N[C@H](CC(C)C)C(=O)N[C@@H](Cc1c[nH]c2ccccc12)C(=O)N[C@@H](C(=O)N[C@@H](Cc1c[nH]c2ccccc12)C(=O)NCCO)C(C)C)[C@H](C)O)C(C)C)C(C)C [compound 10338] (For-VGA[dT]A[dL]V[dV]W[dT]W[dL]W[dV]W-NHCH2CH2OH) | - | 1.01 | 100
